Test results taken from ChEMBL document CHEMBL1201862, “PubChem BioAssay data set” (2004).
Calls of active or inactive are those of the source.

Columns and labels:
[1] = biological target: Sphingosine 1-phosphate receptor 4 (Homo sapiens, UniProt O95977); test: S1P4 receptor agonists, human, late-stage follow-up, cell-based, fluorescence, synthesized compounds (AID 463107); type: functional
[2] = biological target: Alkaline phosphatase, placental type (Homo sapiens, UniProt P05187); test: PLAP enzyme inhibitors, confirmation, biochemical, luminescence (AID 1512); type: functional
[3] = biological target: T1, Alkaline phosphatase, tissue-nonspecific isozyme (Homo sapiens, UniProt P05186); test: human TNAP enzyme inhibitors, SAR follow-up, biochemical, luminescent, dose response (AID 1056)
T1 sequence (P05186 whole entry): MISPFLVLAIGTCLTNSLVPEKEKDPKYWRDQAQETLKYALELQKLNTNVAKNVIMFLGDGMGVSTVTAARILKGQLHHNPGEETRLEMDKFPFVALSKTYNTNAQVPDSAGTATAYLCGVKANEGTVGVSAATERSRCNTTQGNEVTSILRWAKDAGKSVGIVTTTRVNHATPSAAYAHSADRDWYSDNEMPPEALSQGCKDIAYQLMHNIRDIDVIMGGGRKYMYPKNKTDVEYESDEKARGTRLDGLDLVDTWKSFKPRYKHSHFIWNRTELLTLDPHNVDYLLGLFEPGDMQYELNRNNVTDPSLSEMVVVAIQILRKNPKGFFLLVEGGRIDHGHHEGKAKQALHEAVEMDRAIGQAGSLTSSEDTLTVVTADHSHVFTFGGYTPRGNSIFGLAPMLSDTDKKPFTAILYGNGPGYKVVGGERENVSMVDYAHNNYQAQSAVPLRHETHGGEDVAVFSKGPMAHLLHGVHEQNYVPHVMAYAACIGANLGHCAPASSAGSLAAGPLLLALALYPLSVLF

[4] = biological target: Voltage-dependent T-type calcium channel subunit alpha-1H (Homo sapiens, UniProt O95180); test: Cav3.2 T-type channel inhibitors, cell-based, synthetic library set 1, calcium flux (AID 493022); type: functional
Voltage-dependent T-type calcium channel subunit alpha-1H, sequence (O95180 whole entry): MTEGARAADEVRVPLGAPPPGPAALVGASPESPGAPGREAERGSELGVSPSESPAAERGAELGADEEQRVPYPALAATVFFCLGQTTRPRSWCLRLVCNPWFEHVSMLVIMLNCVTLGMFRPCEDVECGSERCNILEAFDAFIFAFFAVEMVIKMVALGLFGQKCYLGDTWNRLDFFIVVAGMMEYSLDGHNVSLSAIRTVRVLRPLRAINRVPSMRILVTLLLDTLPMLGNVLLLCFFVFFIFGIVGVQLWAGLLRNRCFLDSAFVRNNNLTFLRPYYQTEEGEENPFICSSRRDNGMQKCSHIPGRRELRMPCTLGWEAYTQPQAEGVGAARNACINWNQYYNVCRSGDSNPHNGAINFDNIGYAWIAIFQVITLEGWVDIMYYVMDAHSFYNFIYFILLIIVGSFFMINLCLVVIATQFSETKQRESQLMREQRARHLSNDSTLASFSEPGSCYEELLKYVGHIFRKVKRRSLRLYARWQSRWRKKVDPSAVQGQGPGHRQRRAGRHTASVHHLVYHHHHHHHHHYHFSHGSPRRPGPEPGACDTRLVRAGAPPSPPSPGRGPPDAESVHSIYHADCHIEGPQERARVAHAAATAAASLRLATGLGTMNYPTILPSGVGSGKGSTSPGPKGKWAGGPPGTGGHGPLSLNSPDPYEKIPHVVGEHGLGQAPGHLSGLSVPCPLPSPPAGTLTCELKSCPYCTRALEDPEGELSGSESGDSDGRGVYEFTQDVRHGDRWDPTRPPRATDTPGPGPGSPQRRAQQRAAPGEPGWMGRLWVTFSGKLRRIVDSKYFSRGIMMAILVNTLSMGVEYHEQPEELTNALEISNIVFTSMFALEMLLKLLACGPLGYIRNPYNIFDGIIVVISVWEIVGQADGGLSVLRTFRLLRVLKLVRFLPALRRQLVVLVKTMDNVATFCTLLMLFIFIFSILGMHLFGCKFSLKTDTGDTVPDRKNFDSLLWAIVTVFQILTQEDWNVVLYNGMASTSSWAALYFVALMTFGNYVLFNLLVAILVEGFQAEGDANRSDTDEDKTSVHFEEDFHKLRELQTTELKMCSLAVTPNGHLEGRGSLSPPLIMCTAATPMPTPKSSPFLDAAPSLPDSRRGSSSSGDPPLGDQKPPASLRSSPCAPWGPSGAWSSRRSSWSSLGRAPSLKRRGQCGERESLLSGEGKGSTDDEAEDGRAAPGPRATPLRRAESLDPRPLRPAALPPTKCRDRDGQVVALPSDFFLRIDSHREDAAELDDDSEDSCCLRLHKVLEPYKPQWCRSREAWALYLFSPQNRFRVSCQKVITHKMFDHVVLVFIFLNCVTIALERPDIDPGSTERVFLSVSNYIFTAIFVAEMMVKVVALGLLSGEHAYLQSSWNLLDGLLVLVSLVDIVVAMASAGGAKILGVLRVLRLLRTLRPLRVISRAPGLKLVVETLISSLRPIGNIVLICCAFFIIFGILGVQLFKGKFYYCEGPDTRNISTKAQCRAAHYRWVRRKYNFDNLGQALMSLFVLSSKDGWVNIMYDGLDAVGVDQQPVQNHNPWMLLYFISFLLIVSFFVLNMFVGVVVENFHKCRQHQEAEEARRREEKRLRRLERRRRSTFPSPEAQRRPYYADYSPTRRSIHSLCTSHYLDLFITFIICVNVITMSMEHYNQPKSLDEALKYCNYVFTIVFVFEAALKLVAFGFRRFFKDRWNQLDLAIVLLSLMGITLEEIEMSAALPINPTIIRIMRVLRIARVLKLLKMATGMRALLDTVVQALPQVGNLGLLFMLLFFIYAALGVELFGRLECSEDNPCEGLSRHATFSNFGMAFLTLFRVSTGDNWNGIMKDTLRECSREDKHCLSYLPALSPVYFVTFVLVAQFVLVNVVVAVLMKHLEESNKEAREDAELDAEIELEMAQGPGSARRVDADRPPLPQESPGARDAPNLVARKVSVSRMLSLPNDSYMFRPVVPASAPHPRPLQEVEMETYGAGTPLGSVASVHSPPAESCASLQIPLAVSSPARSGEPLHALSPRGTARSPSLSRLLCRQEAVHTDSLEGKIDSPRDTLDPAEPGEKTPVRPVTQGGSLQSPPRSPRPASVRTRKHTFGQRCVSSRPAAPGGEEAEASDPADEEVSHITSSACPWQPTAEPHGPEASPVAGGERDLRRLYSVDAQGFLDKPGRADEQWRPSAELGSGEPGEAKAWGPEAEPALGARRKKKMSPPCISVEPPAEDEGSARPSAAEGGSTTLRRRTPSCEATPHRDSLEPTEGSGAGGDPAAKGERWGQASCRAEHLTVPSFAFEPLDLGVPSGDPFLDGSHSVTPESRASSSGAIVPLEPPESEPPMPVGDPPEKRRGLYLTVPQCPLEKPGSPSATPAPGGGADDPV

[5] = biological target: G-protein coupled receptor 55 (Homo sapiens, UniProt Q9Y2T6); test: SAR Analysis of Selective Antagonists of GPR55 using an Image-Based Assay - Set 3. [Related pubchem assays (depositor defined):AID2058, AID2079]; type: functional
G-protein coupled receptor 55, sequence (Q9Y2T6 whole entry): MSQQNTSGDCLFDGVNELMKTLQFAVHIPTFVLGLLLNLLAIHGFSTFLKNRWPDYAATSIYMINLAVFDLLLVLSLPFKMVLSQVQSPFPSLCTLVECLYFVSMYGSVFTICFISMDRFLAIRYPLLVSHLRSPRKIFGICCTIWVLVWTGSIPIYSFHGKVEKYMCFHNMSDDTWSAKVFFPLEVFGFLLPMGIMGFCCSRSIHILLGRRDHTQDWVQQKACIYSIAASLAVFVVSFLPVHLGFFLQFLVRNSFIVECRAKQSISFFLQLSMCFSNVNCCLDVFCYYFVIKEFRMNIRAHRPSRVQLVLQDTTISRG

[6] = biological target: G-protein coupled receptor 35 (Homo sapiens, UniProt Q9HC97); test: SAR analysis of Antagonists of the GPR35 Receptor using an Image-Based Assay - Set 5. [Related pubchem assays (depositor defined):AID2058, AID2079]; type: functional
[7] = biological target: T2, Dual specificity protein phosphatase 6 (Rattus norvegicus, UniProt Q64346); type: functional
T2 sequence (Q64346 whole entry): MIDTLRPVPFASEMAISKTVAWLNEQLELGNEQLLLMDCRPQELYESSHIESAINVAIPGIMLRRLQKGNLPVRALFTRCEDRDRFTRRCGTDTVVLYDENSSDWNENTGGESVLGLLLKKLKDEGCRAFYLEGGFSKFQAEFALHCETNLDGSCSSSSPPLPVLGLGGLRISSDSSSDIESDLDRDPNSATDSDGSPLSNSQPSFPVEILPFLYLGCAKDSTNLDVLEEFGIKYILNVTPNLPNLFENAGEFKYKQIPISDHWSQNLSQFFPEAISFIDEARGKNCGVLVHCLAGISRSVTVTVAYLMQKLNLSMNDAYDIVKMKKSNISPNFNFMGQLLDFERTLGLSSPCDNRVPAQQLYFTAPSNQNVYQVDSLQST

[8] = biological target: Glyceraldehyde-3-phosphate dehydrogenase (Homo sapiens, UniProt P04406)
[9] = biological target: T3, Dual specificity protein phosphatase 3 (Homo sapiens, UniProt P51452); test: MOA VHR1 Fluorescent secondary assay for identification of redox-state modulating compounds. [Related pubchem assays (depositor defined):AID1654, AID1661, AID1878, AID1957]
T3 sequence (P51452 whole entry): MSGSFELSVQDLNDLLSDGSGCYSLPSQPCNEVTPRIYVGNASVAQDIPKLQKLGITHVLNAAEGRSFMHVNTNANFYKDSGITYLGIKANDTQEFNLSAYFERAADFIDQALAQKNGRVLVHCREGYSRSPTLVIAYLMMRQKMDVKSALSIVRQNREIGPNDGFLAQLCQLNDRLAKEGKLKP

[10] = biological target: T4, Tyrosine-protein phosphatase non-receptor type 7 (Homo sapiens, UniProt P35236); type: functional
T4 sequence (P35236 whole entry): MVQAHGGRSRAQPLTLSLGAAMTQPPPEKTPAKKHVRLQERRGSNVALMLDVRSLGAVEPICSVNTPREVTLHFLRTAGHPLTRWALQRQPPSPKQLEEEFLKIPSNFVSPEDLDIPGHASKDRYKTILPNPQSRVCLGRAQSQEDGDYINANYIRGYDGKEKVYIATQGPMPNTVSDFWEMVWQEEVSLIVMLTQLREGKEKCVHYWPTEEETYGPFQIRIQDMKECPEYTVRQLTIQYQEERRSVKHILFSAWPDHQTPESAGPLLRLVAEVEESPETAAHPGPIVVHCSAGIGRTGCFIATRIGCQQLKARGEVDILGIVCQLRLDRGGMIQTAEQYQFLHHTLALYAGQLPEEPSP

[11] = biological target: T4, Tyrosine-protein phosphatase non-receptor type 7; test: redox-dependent HePTP inhibition, mechanism study, biochemical, fluorescence (AID 2068); type: functional
[12] = biological target: T2, Dual specificity protein phosphatase 6
[13] = biological target: T3, Dual specificity protein phosphatase 3; test: SAR VHR1 Fluorescent Assay for In Vitro dose response studies. [Related pubchem assays (depositor defined):AID1654, AID1661, AID1878, AID1992, AID2004, AID2070, AID2085]; type: functional
[14] = biological target: T5, Type-1 angiotensin II receptor (Homo sapiens, UniProt P30556); test: AT1 receptor agonists, dose response, selectivity assay for APJ receptor agonist project, cell-based, uHTS hits (AID 488865); type: functional;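 also: beta-arrestin recruitment to AT1 measured by enzyme fragment complementation luminescence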
T5 sequence (P30556 whole entry): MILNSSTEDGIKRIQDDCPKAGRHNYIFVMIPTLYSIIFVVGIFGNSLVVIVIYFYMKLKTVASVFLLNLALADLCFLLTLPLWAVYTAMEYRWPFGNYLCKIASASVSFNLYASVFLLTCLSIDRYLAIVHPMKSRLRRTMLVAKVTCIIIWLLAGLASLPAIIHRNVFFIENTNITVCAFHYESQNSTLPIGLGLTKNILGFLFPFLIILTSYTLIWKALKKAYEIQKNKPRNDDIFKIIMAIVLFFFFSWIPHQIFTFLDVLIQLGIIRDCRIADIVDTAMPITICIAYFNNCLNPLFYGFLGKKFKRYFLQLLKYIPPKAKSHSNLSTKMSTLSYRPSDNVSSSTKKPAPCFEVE

HEK293 [15] = test: cells; type: functional, cell-based; settings: Homo sapiens
HEK293 [16] = test: NOD1 signaling inhibitors, primary screen, cell-based, luminescence, uHTS (AID 1578); type: functional; settings: Homo sapiens
[17] = biological target: Nucleotide-binding oligomerization domain-containing protein 2 (Homo sapiens, UniProt Q9HC29); test: NOD2 signaling inhibitors, cell-based, luminescence, uHTS, HEK293 (AID 1566); type: functional
Nucleotide-binding oligomerization domain-containing protein 2, sequence (Q9HC29 whole entry, the tested form may be a part): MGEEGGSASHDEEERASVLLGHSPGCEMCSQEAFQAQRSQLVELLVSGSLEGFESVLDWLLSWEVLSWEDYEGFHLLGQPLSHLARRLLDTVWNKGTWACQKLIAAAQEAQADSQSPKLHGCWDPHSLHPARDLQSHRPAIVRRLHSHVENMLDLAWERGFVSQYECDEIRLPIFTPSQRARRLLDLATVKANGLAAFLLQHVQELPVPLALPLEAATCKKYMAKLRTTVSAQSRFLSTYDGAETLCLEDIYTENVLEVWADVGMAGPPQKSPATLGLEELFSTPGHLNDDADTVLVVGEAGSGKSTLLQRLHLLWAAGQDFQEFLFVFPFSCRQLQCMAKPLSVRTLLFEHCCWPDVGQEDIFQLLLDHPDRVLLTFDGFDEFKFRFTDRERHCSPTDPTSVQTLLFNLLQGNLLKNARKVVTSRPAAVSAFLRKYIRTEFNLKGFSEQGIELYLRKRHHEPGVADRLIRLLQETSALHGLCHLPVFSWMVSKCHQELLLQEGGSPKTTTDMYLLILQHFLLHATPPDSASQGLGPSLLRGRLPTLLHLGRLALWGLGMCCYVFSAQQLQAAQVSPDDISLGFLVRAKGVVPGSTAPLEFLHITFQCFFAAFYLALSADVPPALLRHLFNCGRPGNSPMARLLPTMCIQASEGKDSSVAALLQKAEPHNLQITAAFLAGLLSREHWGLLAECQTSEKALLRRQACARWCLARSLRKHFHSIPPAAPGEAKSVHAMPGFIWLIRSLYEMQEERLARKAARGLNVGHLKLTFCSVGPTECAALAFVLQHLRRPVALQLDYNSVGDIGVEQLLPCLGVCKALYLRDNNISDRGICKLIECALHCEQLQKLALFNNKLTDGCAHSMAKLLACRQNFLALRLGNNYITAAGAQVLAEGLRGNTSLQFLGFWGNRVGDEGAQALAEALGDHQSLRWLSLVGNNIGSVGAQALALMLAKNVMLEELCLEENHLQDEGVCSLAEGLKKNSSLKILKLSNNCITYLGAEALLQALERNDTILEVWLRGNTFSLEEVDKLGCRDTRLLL

HEK293 [18] = test: NOD2 signaling inhibitors in MDP-stimulated cells, cell-based, uHTS, luminescence (AID 2001); type: functional; settings: Homo sapiens
[19] = biological target: T6, Heat shock factor protein 1 (Mus musculus, UniProt P38532); test: inhibition of MG132-induced HSE-luciferase signal, confirmation, cell-based, NIH3T3, luminescence, dose retest (AID 2382); type: functional;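 also: NIH3T3 fibroblasts with HSF1-driven luciferase reporter stressed by proteasome inhibitor MG132; luminescence from HSF1-driven luciferase expression after 8 hours of MG132 stress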
T6 sequence (P38532 whole entry): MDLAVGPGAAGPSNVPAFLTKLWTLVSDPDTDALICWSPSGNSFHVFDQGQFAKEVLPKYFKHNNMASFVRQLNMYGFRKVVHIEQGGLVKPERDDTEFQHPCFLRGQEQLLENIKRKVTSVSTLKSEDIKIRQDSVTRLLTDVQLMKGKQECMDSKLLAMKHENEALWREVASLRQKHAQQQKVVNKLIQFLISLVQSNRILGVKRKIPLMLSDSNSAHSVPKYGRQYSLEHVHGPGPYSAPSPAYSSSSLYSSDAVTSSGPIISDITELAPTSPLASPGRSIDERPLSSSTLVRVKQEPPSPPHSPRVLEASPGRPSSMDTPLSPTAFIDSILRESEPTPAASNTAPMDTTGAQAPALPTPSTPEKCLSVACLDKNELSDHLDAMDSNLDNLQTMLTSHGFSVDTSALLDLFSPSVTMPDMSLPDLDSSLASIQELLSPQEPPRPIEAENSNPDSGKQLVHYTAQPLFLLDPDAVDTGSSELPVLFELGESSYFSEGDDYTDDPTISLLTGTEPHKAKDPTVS

HEK293 [20] = test: cells; type: functional, cell-based; settings: Homo sapiens; remark: listed apart in the source
HEK293 [21] = test: cells; type: functional, cell-based; settings: Homo sapiens; remark: listed apart in the source
Hexokinase HKDC1 = biological target: T7, Hexokinase HKDC1 (Homo sapiens, UniProt Q2TB90); test: HKDC1 hexokinase inhibitors, dose response, biochemical, W721R variant (AID 504729); type: functional
T7 sequence (Q2TB90 whole entry): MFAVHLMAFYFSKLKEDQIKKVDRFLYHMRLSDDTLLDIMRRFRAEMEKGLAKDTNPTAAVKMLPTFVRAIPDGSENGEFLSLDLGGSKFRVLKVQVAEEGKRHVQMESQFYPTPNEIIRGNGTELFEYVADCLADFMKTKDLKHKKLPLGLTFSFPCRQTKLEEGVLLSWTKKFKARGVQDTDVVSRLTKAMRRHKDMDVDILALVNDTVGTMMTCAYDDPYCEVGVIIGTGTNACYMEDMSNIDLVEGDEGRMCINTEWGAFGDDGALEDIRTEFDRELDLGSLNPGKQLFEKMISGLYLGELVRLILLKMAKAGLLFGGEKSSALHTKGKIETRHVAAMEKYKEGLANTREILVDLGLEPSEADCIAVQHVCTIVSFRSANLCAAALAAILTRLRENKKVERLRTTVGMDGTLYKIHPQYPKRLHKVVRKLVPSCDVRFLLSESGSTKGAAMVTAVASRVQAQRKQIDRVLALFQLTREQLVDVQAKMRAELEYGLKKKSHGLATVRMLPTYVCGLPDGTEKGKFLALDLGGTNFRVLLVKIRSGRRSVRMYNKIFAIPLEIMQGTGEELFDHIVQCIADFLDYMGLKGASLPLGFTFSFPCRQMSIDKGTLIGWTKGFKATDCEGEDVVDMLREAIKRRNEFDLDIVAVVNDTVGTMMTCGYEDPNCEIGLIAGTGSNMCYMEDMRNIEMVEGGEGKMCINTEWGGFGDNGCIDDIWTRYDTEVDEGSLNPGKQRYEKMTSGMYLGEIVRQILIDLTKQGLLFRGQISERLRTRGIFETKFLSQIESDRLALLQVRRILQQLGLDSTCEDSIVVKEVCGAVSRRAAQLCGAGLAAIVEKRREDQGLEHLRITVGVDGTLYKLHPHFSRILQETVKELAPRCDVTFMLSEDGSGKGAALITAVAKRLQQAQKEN

Beta-galactosidase = Beta-galactosidase (Escherichia coli, UniProt Q8VNN2); test: beta-galactosidase enzyme inhibitors and activators, dose response, artefact control for CCR6 antagonist project, biochemical, E. coli enzyme, set 3 (AID 504712); type: functional
[22] = biological target: T8, Hepatocyte nuclear factor 4-alpha (Homo sapiens, UniProt P41235); type: functional, cell-based;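 also: biochemical luminescence-based dose-response counterscreen measuring inhibition of HNF4 dimerization, run alongside a screen for blockers of ABHD5–perilipin-5 interaction; split luciferase complementation of HNF4 fusion proteins in cell lysate measuring dimerization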
T8 sequence (P41235 whole entry): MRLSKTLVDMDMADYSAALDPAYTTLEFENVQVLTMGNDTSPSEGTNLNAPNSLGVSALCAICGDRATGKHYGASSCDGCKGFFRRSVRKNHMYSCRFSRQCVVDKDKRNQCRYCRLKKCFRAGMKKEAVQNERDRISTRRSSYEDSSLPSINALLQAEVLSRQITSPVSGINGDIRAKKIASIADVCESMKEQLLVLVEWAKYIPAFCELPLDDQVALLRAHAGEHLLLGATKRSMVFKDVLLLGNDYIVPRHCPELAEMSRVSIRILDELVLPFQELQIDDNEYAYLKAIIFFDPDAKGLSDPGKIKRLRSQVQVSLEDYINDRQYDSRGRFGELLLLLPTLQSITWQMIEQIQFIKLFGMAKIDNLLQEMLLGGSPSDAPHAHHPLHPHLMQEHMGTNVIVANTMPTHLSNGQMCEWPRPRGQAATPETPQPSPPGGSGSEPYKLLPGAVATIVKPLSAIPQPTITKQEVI

Genome polyprotein = Genome polyprotein (dengue virus type 2, UniProt P29990); test: Dengue-2 NS5 methyltransferase inhibitors, primary screen, biochemical, confirmation dose response (AID 588689); type: functional
Genome polyprotein, sequence (P29990 2492-3391 limits assumed): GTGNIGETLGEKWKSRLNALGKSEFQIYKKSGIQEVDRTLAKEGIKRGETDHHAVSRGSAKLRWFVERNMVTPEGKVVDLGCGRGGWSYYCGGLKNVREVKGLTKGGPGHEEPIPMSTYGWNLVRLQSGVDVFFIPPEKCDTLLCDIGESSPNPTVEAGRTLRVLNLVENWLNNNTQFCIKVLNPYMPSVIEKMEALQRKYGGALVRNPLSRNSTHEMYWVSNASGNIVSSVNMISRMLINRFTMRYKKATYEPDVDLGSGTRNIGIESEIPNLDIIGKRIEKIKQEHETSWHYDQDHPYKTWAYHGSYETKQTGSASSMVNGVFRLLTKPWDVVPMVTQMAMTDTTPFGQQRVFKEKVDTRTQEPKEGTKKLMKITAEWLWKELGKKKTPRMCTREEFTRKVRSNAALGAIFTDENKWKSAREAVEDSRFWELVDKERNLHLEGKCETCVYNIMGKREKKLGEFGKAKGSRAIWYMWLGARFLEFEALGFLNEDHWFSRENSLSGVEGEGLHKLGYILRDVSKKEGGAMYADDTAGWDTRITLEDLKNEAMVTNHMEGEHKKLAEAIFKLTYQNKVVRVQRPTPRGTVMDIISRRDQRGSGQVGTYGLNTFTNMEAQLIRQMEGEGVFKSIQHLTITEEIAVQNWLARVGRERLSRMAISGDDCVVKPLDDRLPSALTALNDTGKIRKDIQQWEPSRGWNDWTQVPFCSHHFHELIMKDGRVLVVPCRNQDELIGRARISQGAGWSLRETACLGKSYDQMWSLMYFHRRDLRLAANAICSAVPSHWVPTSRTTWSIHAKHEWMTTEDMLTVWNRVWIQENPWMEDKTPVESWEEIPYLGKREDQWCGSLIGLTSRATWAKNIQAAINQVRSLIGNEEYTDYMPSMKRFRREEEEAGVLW

[23] = biological target: Glucose-6-phosphate 1-dehydrogenase (Homo sapiens, UniProt P11413); test: human G6PD enzyme inhibitors, dose response, selectivity assay for P. falciparum G6PD inhibitor project, biochemical, fluorescence (AID 504792); type: functional

Cc1ccc(OCCCOc2ccc(Cl)cc2Cl)c([N+](=O)[O-])n1
EC50 [1]: > 50 µM (inactive)

O=C(NC1(C(F)(F)F)Oc2ccccc2O1)Sc1ccccc1
IC50 [2]: 92.3 µM (active) | IC50 [3]: > 100 µM (inactive)

Cc1ccc(-c2nnc(NC(=O)COc3ccccc3Cl)o2)cc1C
EC50 [4]: 1.3 µM (active)

COC(=O)c1cnn(-c2ccc(Cl)cc2)c1/C=N/NC(N)=S
IC50 [5]: > 32 µM (inactive) | IC50 [6]: 4.6 µM (active)

O=c1/c(=C/c2cccc(Br)c2)sc2nc3cc(Br)cnc3n12
IC50 [7]: > 100 µM (inactive) | IC50 [8]: > 100 µM (not active) | IC50 [9]: > 100 µM (inactive) | IC50 [10]: > 100 µM (not active) | IC50 [11]: 98.3 µM (active) | IC50 [12]: > 100 µM (inactive) | IC50 [13]: > 100 µM (inactive)

CSc1cccc(NC(=S)NC(=O)CCc2ccccc2)c1
EC50 [14]: > 100 µM (inactive)

Cc1ccc(C(=O)Nc2sc(C)c(-c3ccccc3)c2C(N)=O)cc1[N+](=O)[O-]
IC50 (HEK293 [15]): > 20 µM (inactive) | EC50 (HEK293 [16]): > 20 µM (inactive) | EC50 [17]: < 0.31 µM (inactive) | IC50 (HEK293 [18]): > 20 µM (inactive) | EC50 [19]: < 0.16 µM (active) | IC50 (HEK293 [20]): > 20 µM (inactive) | IC50 (HEK293 [21]): < 0.312 µM (active)

CN(C)c1ccc(Cc2cc3c(O)ccc(O)c3cc(Cc3ccc(N(C)C)cc3)c2=O)cc1
IC50 (Hexokinase HKDC1): 10.9 µM (active) | IC50 (Beta-galactosidase): > 66.6 µM (inactive) | IC50 [22]: 4.6 µM (active) | IC50 (Genome polyprotein): 44.1 µM (active) | IC50 [23]: 56.7 µM (inactive)
